The values below are quoted from earlier work in patent US20090291974A1, “BOSENTAN SALTS” (priority 2008, published 2009).

Molecules are shown by their SMILES.

Test in data set [1]: not given
The source holds these as a separate data set.

The conditions of data set [2]: acidic and basic centers, overall value.

`COc1ccccc1Oc1c(NS(=O)(=O)c2ccc(C(C)(C)C)cc2)nc(-c2ncccn2)nc1OCCO` [Bosentan monohydrate, bosentan monohydrate]: under “acetone”, the solubility in acetone entry is recorded as “freely soluble”. The solubility in dichloromethane entry (dichloromethane) is “freely soluble”. Further, the solubility in ethanol result (ethanol) is given as “soluble”. Besides, for the setting “ethyl acetate”, the “solubility in ethyl acetate” value is reported as “soluble”. In addition, under “hexane”, the solubility in hexane entry is “very slightly soluble”. In addition, the solubility in isopropanol entry (isopropanol) is recorded as “slightly soluble”. Further, the solubility in methanol result (methanol) is “slightly soluble”.
Regarding `COc1ccccc1Oc1c(NS(=O)(=O)c2ccc(C(C)(C)C)cc2)nc(-c2ncccn2)nc1OCCO` [Bosentan], the “solubility in aqueous solution at pH 1.1” value in data set [1] (aqueous solution, pH 1.1) was 0.1 mg/100 ml. Moreover, in data set [1] (aqueous solution, pH 4.0), the “solubility in aqueous solution at pH 4.0” value is 0.1 mg/100 ml. Moreover, in data set [1] (aqueous solution, pH 5.0), the “solubility in aqueous solution at pH 5.0” value was 0.2 mg/100 ml. In addition, the “solubility in aqueous solution at pH 7.5” value in data set [1] (aqueous solution, pH 7.5) is reported as 43 mg/100 ml. Besides, in data set [1] (water), the solubility in water was 1.0 mg/100 ml. Further, the “overall pKa” value in data set [2] is 5.46.
